# Assay results taken from patent publication US7732443B2, “Therapeutic substituted cyclopentanes” (priority 2008, dated 2010).
# Key:
# Format in all cases: in vivo
# normotensive dogs = assay: Intraocular pressure (IOP) in normotensive dogs
# Procedure: Compounds from above are tested in vivo to measure its ability to reduce intraocular pressure. Compound 14a is tested in normotensive dogs.
# [1] = system: laser-induced hypertensive monkeys; assay: Intraocular pressure (IOP) in laser-induced hypertensive monkeys
# [2] = system: lashes and adjacent hairs of patients; assay: Lash and hair appearance in glaucoma patients treated in one eye only; settings: glaucoma patient treated in one eye
# Excerpt: In the course of treating patients having glaucoma, treatment may only be appropriate in one eye. […] The lash appearance on the lids of the treated eyes would have appeared quite attractive if it represented a bilateral phenomenon. As a result of its asymmetric nature, the long lashes on one side could be construed as disturbing from a cosmetic standpoint. A systemic examination was preformed as a result of the asymmetric phenomenon. It soon became apparent that this altered appearance was not an isolated finding. […] Definite differences could be identified to varying degrees in the lashes and adjacent hairs of all patients who were taking the drug on a unilateral basis for longer than 6 months.
# The changes in the lashes were apparent on gross inspection in several patients once attention was focused on the issue. In those with light colored hair and lashes, the differences were only seen easily with the aid of the high magnification and lighting capabilities of the slit lamp biomicroscope. In the course of glaucoma follow-up examination, attention is generally immediately focused on the eye itself. As a result of the high power magnification needed only one eye is seen at a time and the eye is seen at a high enough power that the lashes are not in focus. […]
SMILES,intraocular pressure (IOP) change from baseline (normotensive dogs),intraocular pressure (IOP) change from baseline [1],"lash appearance, treated eye versus non-treated eye [2]"
CCCCCC(O)c1ccc(C2C(O)CC(Cl)C2Cc2cccc(CCC(=O)OCCO)c2)cc1 (centres unmarked) [Compound 25a],decreases from baseline,decreases from baseline,–
CCCCCC(O)c1ccc(C2C(O)CC(Cl)C2Cc2cccc(CCC(=O)OCCN3CCOCC3)c2)cc1 (centres unmarked) [Compound 25b],decreases from baseline,decreases from baseline,–
CCCCCC(O)c1ccc(C2C(O)CC(Cl)C2CCCc2ncc(C(=O)OCCO)s2)cc1 (centres unmarked) [Compound 34a],decreases from baseline,decreases from baseline,–
CCCCCC(O)c1ccc(C2C(O)CC(Cl)C2CCCc2ncc(C(=O)OCCN3CCOCC3)s2)cc1 (centres unmarked) [Compound 34b],decreases from baseline,decreases from baseline,–
CCCCCC(O)c1ccc(C2C(O)CC(F)C2CC=CCCCC(=O)OCCO)cc1 (centres unmarked) [Compound 40a],decreases from baseline,decreases from baseline,–
CCCCCC(O)c1ccc(C2C(O)CC(F)C2CC=CCCCC(=O)OCCN2CCOCC2)cc1 (centres unmarked) [Compound 40b],decreases from baseline,decreases from baseline,–
CCCCCC(O)c1ccc(C2C(O)CC(Cl)C2CC=CCCCC(=O)OCCO)cc1 (centres unmarked) [Compound 46a],decreases from baseline,decreases from baseline,–
CCCCCC(O)c1ccc(C2C(O)CC(Cl)C2CC=CCCCC(=O)OCCN2CCOCC2)cc1 (centres unmarked) [Compound 46b],decreases from baseline,decreases from baseline,–
CCCCCC(O)c1ccc(C2C(O)CC(Cl)C2CC=CCCCC(=O)OCCO)cc1 (centres unmarked) [Compound 51a],decreases from baseline,decreases from baseline,–
CCCCCC(O)c1ccc(C2C(O)CC(Cl)C2CC=CCCCC(=O)OCCN2CCOCC2)cc1 (centres unmarked) [Compound 51b],decreases from baseline,decreases from baseline,–
CCCCCCc1ccc(C2C(O)CC(Cl)C2CC=CCCCC(=O)OCCO)cc1 (centres unmarked) [Compound 63a],decreases from baseline,decreases from baseline,–
CCCCCCc1ccc(C2C(O)CC(Cl)C2CC=CCCCC(=O)OCCN2CCOCC2)cc1 (centres unmarked) [Compound 63b],decreases from baseline,decreases from baseline,–
CCCCCC(O)c1ccc(C2C(O)CC(Cl)C2CC=CCCCC(=O)OCCO)cc1 (centres unmarked) [Compound 68a],decreases from baseline,decreases from baseline,–
CCCCCC(O)c1ccc(C2C(O)CC(Cl)C2CC=CCCCC(=O)OCCN2CCOCC2)cc1 (centres unmarked) [Compound 68b],decreases from baseline,decreases from baseline,–
CCNC(=O)CCC/C=C\C[C@@H]1[C@@H](/C=C/[C@@H](O)CCc2ccccc2)[C@H](O)C[C@@H]1O [bimatoprost],–,–,"longer, thicker, and fuller in the treated eye than in the non-treated eye"
